Reference: patent publication US20060040957A1, “BICYCLIC PYRIMIDINE MATRIX METALLOPROTEINASE INHIBITORS” (priority 2001, published 2006)
Where a name gives a salt, the structure may show the parent alone.

Legend:
Type in all cases: biochemical
[1] = biological target: MMP-13CD (catalytic domain of collagenase 3) (Homo sapiens, UniProt P45452); assay: Thiopeptolide substrate hydrolysis assay, MMP-13CD; conditions: thiopeptolide substrate, HEPES pH 7.0, 22° C.; for IC50: read-out: IC50 (μM) Versus Certain MMPs: MMP-13 CD
From the text: (§1) Thiopeptolide substrates show virtually no decomposition or hydrolysis at or below neutral pH in the absence of a matrix metalloproteinase enzyme.

[2] = biological target: T1, MMP-2FL (full length Gelatinase A) (Homo sapiens, UniProt P08253); assay: Thiopeptolide substrate hydrolysis assay, MMP-2FL; conditions: HEPES pH 7.0, 22° C., read-out: IC50 (μM) Versus Certain MMPs: MMP-02 FL
T1 sequence (P08253 110-660): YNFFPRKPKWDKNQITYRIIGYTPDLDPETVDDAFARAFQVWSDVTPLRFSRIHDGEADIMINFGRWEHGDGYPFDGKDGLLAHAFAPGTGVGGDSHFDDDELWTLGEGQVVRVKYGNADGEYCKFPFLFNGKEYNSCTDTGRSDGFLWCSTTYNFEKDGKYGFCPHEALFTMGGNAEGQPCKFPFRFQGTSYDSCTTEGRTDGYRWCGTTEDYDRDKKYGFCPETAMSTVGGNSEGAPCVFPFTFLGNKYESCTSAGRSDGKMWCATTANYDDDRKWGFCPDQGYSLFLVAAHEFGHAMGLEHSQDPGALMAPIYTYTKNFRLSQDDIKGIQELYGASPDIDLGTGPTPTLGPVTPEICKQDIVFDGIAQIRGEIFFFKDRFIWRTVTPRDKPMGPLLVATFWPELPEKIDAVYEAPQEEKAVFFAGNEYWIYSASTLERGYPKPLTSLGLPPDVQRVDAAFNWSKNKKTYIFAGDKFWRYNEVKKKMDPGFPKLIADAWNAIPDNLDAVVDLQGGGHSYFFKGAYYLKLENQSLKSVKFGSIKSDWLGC
From the text: (§2) The invention compounds of Formula I have been evaluated in standard assays for their ability to inhibit the catalytic activity of various MMP enzymes.
as §1
(§3) Several representative compounds have been evaluated for their ability to inhibit various matrix metalloproteinase enzymes.

[3] = biological target: T2, MMP-7FL (full length matrilysin) (Homo sapiens, UniProt P09237); assay: Thiopeptolide substrate hydrolysis assay, MMP-7FL; conditions: HEPES pH 7.0, 22° C., read-out: IC50 (μM) Versus Certain MMPs: MMP-07 FL
T2 sequence (P09237 95-267): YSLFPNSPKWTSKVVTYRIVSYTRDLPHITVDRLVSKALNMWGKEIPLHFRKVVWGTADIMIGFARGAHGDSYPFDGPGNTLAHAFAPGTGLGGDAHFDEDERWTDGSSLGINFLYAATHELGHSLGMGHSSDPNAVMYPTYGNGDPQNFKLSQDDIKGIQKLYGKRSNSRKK
From the text: as §2, §1, §3

[4] = biological target: MMP-9FL (full length Gelatinase B) (Homo sapiens, UniProt P14780); assay: Thiopeptolide substrate hydrolysis assay, MMP-9FL; conditions: HEPES pH 7.0, 22° C., read-out: IC50 (μM) Versus Certain MMPs: MMP-09 FL
From the text: as §2, §1, §3

[5] = biological target: MMP-14CD (catalytic domain of MMP-14) (Homo sapiens, UniProt P50281); assay: Thiopeptolide substrate hydrolysis assay, MMP-14CD; conditions: HEPES pH 7.0, 22° C., read-out: IC50 (μM) Versus Certain MMPs: MMP-14 CD
From the text: as §2, §1, §3

Chain of MMP-9FL (full length Gelatinase B) (P14780 94-707, species assumed): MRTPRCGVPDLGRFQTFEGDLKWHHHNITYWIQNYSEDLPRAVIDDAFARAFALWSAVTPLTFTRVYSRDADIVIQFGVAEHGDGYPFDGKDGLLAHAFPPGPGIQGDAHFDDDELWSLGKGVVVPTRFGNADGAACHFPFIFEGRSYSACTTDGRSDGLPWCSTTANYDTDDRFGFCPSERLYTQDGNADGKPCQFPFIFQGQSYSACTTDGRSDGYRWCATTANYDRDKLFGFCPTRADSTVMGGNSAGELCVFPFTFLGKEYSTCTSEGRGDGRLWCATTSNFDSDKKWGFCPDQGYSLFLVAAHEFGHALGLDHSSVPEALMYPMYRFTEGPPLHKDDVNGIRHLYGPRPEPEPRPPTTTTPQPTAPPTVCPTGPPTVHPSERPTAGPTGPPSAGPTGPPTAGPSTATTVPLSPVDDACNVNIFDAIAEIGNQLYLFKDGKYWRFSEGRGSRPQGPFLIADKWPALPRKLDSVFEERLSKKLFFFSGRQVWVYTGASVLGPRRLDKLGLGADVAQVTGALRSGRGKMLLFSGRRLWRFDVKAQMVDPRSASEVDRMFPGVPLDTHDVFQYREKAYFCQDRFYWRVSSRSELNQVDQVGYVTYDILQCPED

SMILES	IC50 [1]	IC50 (μM) Versus Certain MMPs: MMP-13 CD [1]	IC50 [2]	IC50 [3]	IC50 [4]	IC50 [5]
O=c1cc2sccn2c(=O)n1Cc1ccncc1 [6-(4-Pyridylmethyl)-thiazolo[3,2-c]pyrimidine-5,7,dione]	> 100 µM					
O=C(c1ccccc1)n1c(=O)cc2sccn2c1=O [6-Benzoyl-thiazolo[3,2-c]pyrimidine-5,7-dione]	> 100 µM					
O=c1cc2sc(C(O)c3ccccc3)cn2c(=O)n1Cc1ccccc1 (stereo not drawn) [Example 7, 6-Benzyl-2-(hydroxy-phenyl-methyl)-thiazolo[3,2-c]pyrimidine-5,7-dione]	32 µM					
O=C(OCc1ccccc1)C1CSc2cc(=O)n(Cc3ccccc3)c(=O)n21 (stereo not drawn) [Example 20, 6-Benzyl-5,7-dioxo-2,3,6,7-tetrahydro-5H-thiazolo[3,2-c]pyrimidine-3-carboxylic acid benzyl ester]		none				
Cc1c(=O)n(Cc2ccccc2)c(=O)n2cc(C(=S)NCc3ccccc3)sc12 [Example 24, 6-Benzyl-8-methyl-5,7-dioxo-6,7-dihydro-5H-thiazolo[3,2-c]pyrimidine-2-carbothioic acid benzylamide]	> 30 µM					
COC(=O)c1sc2cc(=O)n(Cc3ccccc3)c(=O)n2c1C [Example 26, 6-Benzyl-3-methyl-5,7-dioxo-6,7-dihydro-5H-thiazolo[3,2-c]pyrimidine-2-carboxylic acid methyl ester]	> 100 µM					
Cc1c(=O)n(Cc2ccccc2)c(=O)n2cc(C(=O)NCc3ccc(Cl)cc3Cl)sc12 [Example 27, 6-Benzyl-8-methyl-5,7-dioxo-6,7-dihydro-5H-thiazolo[3,2-c]pyrimidine-2-carboxylic acid 2,4-dichloro-benzylamide]	> 30 µM					
Cc1c(=O)n(Cc2ccccc2)c(=O)n2cc(C(O)C=Cc3ccccc3)sc12 (stereo not drawn) [Example 29, 6-Benzyl-2-(1-hydroxy-3-phenyl-allyl)-8-methyl-thiazolo[3,2-c]pyrimidine-5,7-dione]	25 µM					
Cc1c(=O)n(Cc2ccccc2)c(=O)n2cc(C(O)C#Cc3ccccc3)sc12 (stereo not drawn) [Example 31, 6-Benzyl-2-(1-hydroxy-3-phenyl-prop-2-ynyl)-8-methyl-thiazolo[3,2-c]pyrimidine-5,7-dione]	> 30 µM					
Cc1c(=O)n(Cc2ccccc2)c(=O)n2cc(C(=O)O)sc12 [Example 33, 6-Benzyl-8-methyl-5,7-dioxo-6,7-dihydro-5H-thiazolo[3,2-c]pyrimidine-2-carboxylic acid]	> 100 µM					
COC(=O)c1cn2c(=O)n(Cc3ccccc3)c(=O)c(C)c2s1 [Example 33a, 6-Benzyl-8-methyl-5,7-dioxo-6,7-dihydro-5H-thiazolo[3,2-c]pyrimidine-2-carboxylic acid methyl ester]		none				
Cc1c(=O)n(Cc2ccccc2)c(=O)n2cc(C(=O)NCc3cscn3)sc12 [Example 35, 6-Benzyl-8-methyl-5,7-dioxo-6,7-dihydro-5H-thiazolo[3,2-c]pyrimidine-2-carboxylic acid(thiazol-4-ylmethyl)-amide hydrochloride]	> 100 µM					
Cc1c(=O)n(Cc2ccc(Br)cc2)c(=O)n2cc(C(=O)NCc3ccncc3)sc12 [Example 71, 6-(4-Bromo-benzyl)-8-methyl-5,7-dioxo-6,7-dihydro-5H-thiazolo[3,2-c]pyrimidine-2-carboxylic acid(pyridin-4-ylmethyl)-amide hydrochloride]			> 30 µM	> 30 µM	> 30 µM	> 30 µM
Cc1c(=O)n(Cc2ccc(Cl)cc2)c(=O)n2cc(C(=O)NCc3ccncc3)sc12 [Example 72, 6-(4-Chloro-benzyl)-8-methyl-5,7-dioxo-6,7-dihydro-5H-thiazolo[3,2-c]pyrimidine-2-carboxylic acid(pyridin-4-ylmethyl)-amide]			> 30 µM	> 30 µM	> 30 µM	> 30 µM
Cc1c(=O)n(Cc2ccc(C(=O)N3CCOCC3)cc2)c(=O)n2cc(C(=O)NCc3ccncc3)sc12 [Example 73, 8-Methyl-6-[4-(morpholine-4-carbonyl)-benzyl]-5,7-dioxo-6,7-dihydro-5H-thiazolo[3,2-c]pyrimidine-2-carboxylic acid(pyridin-4-ylmethyl)-amide hydrochloride]			> 100 µM	> 100 µM	> 100 µM	> 30 µM
COC(=O)Nc1cc(Cn2c(=O)c(C)c3sc(C(=O)NCc4ccc(F)cc4)cn3c2=O)on1 [Example 74, {5-[2-(4-Fluoro-benzylcarbamoyl)-8-methyl-5,7-dioxo-7H-thiazolo[3,2-c]pyrimidin-6-ylmethyl]-isoxazol-3-yl}-carbamic acid methyl ester]			> 30 µM	87 µM	> 30 µM	> 30 µM
Cc1c(=O)n(Cc2ccc(-c3nn[nH]n3)cc2)c(=O)n2cc(C(=O)NCc3ccc(F)cc3)sc12 [Example 75, 8-Methyl-5,7-dioxo-6-[4-(2H-tetrazol-5-yl)-benzyl]-6,7-dihydro-5H-thiazolo[3,2-c]pyrimidine-2-carboxylic acid 4-fluoro-benzylamide]			> 100 µM	> 100 µM	> 100 µM	> 100 µM
Cc1c(=O)n(Cc2ccc(C(=O)N3CCOCC3)cc2)c(=O)n2cc(C(=O)NCc3ccc(F)cc3)sc12 [Example 76, 8-Methyl-6-[4-(morpholine-4-carbonyl)-benzyl]-5,7-dioxo-6,7-dihydro-5H-thiazolo[3,2-c]pyrimidine-2-carboxylic acid 4-fluoro-benzylamide]			> 30 µM	> 30 µM	> 30 µM	> 30 µM
Cc1c(=O)n(Cc2ccc3cc(F)ccc3n2)c(=O)n2cc(C(=O)NCc3ccc(F)cc3)sc12 [Example 77, 6-(6-Fluoro-quinolin-2-ylmethyl)-8-methyl-5,7-dioxo-6,7-dihydro-5H-thiazolo[3,2-c]pyrimidine-2-carboxylic acid 4-fluoro-benzylamide]			> 30 µM	> 30 µM	> 30 µM	> 30 µM
CC#CCn1c(=O)c(C)c2sc(C(=O)NCc3ccc(F)cc3)cn2c1=O [Example 79, 6-But-2-ynyl-8-methyl-5,7-dioxo-6,7-dihydro-5H-thiazolo[3,2-c]pyrimidine-2-carboxylic acid 4-fluoro-benzylamide]			> 100 µM	> 100 µM	> 100 µM	> 100 µM
Cc1c(=O)n(Cc2ccc3oc(=O)ccc3c2)c(=O)n2cc(C(=O)NCc3ccc(F)cc3)sc12 [Example 80, 8-Methyl-5,7-dioxo-6-(2-oxo-2H-1-benzopyran-6-ylmethyl)-6,7-dihydro-5H-thiazolo[3,2-c]pyrimidine-2-carboxylic acid 4-fluoro-benzylamide]			> 30 µM	> 30 µM	> 30 µM	> 30 µM
Cc1c(=O)n(Cc2cccc(C#N)c2)c(=O)n2cc(C(=O)NCc3ccncc3)sc12 [Example 82, 6-(3-Cyano-benzyl)-8-methyl-5,7-dioxo-6,7-dihydro-5H-thiazolo[3,2-c]pyrimidine-2-carboxylic acid(pyridin-4-ylmethyl)-amide hydrochloride]			> 30 µM	> 30 µM	> 30 µM	> 30 µM
Cc1c(=O)n(Cc2ccc(S(N)(=O)=O)cc2)c(=O)n2cc(C(=O)NCc3ccncc3)sc12 [Example 84, 8-Methyl-5,7-dioxo-6-(4-sulfamoyl-benzyl)-6,7-dihydro-5H-thiazolo[3,2-c]pyrimidine-2-carboxylic acid(pyridin-4-ylmethyl)-amide hydrochloride]			> 100 µM	> 100 µM	> 100 µM	> 100 µM
COc1cccc(CNC(=O)c2cn3c(=O)n(Cc4ccccc4)c(=O)c(C)c3s2)c1 [Example 109, 6-Benzyl-8-methyl-5,7-dioxo-6,7-dihydro-5H-thiazolo[3,2-c]pyrimidine-2-carboxylic acid 3-methoxy-benzylamide]			> 30 µM	> 30 µM	> 30 µM	> 30 µM
